According to US8765736B2, “Benzenesulfonamide compounds and the use thereof” (Purdue Pharma L.P., priority 2007, dated 2014):

Assays:
[1] = biological target: T1, N-type calcium channel (NTCC) (Homo sapiens, UniProt Q00975); assay: FLIPR calcium mobilization assay for N-type calcium channel; format: cell-based; settings: calcium mobilization in vitro assay; differentiated IMR32 cells, 5 μM nitrendipine, 90 mM KCl
T1 construct: endogenous in cells; host or cells: IMR32 cells (ATCC), differentiated with dibutyryl cAMP and bromodeoxyuridine
Method: Cell maintenance and differentiation. Unless noted otherwise, cell culture reagents were purchased from Mediatech of Herndon, Md. IMR32 cells (American Type Culture Collection, ATCC, Manassas, Va.) were routinely cultured in growth medium consisting of minimum essential medium containing 10% fetal bovine serum (FBS, Hyclone, Logan, Utah), 100 U/mL penicillin, 100 μg/mL streptomycin, 2 mM L-glutamine, 1 mM sodium pyruvate, and 1×MEM non-essential amino acids. 80-90% confluent flasks of cells were differentiated using the following differentiation medium: Growth medium plus 1 mM dibutyryl cyclic AMP (Sigma, St. Louis, Mo.), and 2.5 μM bromodeoxyuridine (Sigma). Cells were differentiated for 8 days by replacing differentiation medium every 2-3 days.
FLIPR Calcium Mobilization Assay for N-type Calcium Channel. One day prior to performing this assay, differentiated IMR32 cells were treated with 1× CellStripper, and seeded on poly-D-lysine-coated 96-well clear-bottom black plates (Becton Dickinson, Franklin Lakes, N.J.) at 200,000 cells/well. On the day of the assay, the cell plates were washed with IMR32 buffer (127 mM NaCl, 1 mM KCl, 2 mM MgCl2, 700 μM NaH2PO4, 5 mM CaCl2, 5 mM NaHCO3, 8 mM HEPES, 10 mM glucose, pH 7.4), then pre-stimulated with KCl and loaded as follows: 0.05 mL of IMR32 buffer, 0.05 mL of each compound tested diluted in IMR32 buffer containing 20 μM nitrendipine (Sigma), and 0.1 mL KCl dissolved in IMR32 buffer, plus Fluo-4 were added (3 μM final concentration, Molecular Probes, Eugene, Oreg.). Final test compound concentrations ranged from about 846 pM to about 17 μM, final nitrendipine concentration was 5 μM, and final KCl concentration was 90 mM. After 1 hour, the cells were washed twice with 0.05 mL of each compound tested in nitrendipine-containing IMR32 buffer (no KCl or Fluo-4), and then replaced with 0.1 mL of each compound tested in nitrendipine-containing IMR32 buffer. Plates were then transferred to a Fluorimetric Imaging Plate Reader (FLIPR^96, Molecular Devices, Inc., Sunnyvale, Calif.) for assay. The FLIPR measured basal Fluo-4 fluorescence for 315 seconds (i.e., 5 minutes and 15 seconds), then added 0.1 mL KCl agonist dissolved in IMR32 buffer and measured fluorescence for another 45 seconds. Final test compound concentrations on the cells after FLIPR read ranged from about 846 pM to about 17 μM, final nitrendipine concentration was 5 μM, and final KCl concentration was 90 mM. Data were collected over the entire time course and analyzed using Excel, Graph Pad Prism (version 3.02, Graph Pad, San Diego, Calif.), or an in-house non-linear regression analysis software.

[2] = biological target: T2, recombinant rat L-type calcium channel (LTCC) subunits (α1c, α2δ, and β1) (Rattus norvegicus, UniProt P22002); assay: FLIPR calcium mobilization assay for L-type calcium channel; format: cell-based; settings: calcium mobilization in vitro assay; HEK293 cells stably expressing rat LTCC subunits, 90 mM KCl
T2 construct: expressed in transfected cells; α1c in pcDNA6.2DEST, β1 in pcDNA3.2DEST, α2δ in pcDNA3.1-Zeo
Method: Recombinant human embryonal kidney cells (HEK293, ATCC) stably transfected with either N-type calcium channel (NTCC) subunits (α1b (SEQ ID NOs: 13 to 15), α2δ (SEQ ID Nos: 16, 17), and β3 (SEQ ID NOs:18 to 20)) or L-type calcium channel (LTCC) subunits (α1c (SEQ ID NOs:21, 22), α2δ, and β1 (SEQ ID NOs:23 to 25)) were routinely cultured in growth medium consisting of Dulbecco's Modified Eagles Medium containing 10% FBS, 100 U/mL penicillin, 100 μg/mL streptomycin, 4 mM L-glutamine, 500 μg/mL geneticin (G418), 20 μg/mL Blasticidin S (InVivogen, San Diego, Calif.) and 500 μg/mL zeocin (InVivogen).
FLIPR Calcium Mobilization Assay for L-type Calcium Channel. One day prior to performing this assay, HEK293 cells stably expressing recombinant rat L-type calcium channel (LTCC) subunits (α1c, α2δ, and β1) were trypsinized, then seeded on poly-D-lysine-coated 96-well clear-bottom black plates (Becton Dickinson, Franklin Lakes, N.J.) at 75,000 cells/well. On the day of the assay, the plates were washed with LTCC wash buffer (127 mM NaCl, 2 mM MgCl2, 700 μM NaH2PO4, 5 mM CaCl2, 5 mM NaHCO3, 8 mM HEPES, 10 mM glucose, pH 7.4), then loaded with 0.1 mL of LTCC wash buffer containing Fluo-4 (3 μM final concentration, Molecular Probes, Eugene, Oreg.). After 1 hour, the cells were washed with 0.1 mL LTCC wash buffer and resuspended in 0.05 mL LTCC assay buffer (same composition as LTCC wash buffer). Plates were then transferred to a FLIPR^96 for assay. The FLIPR measured basal Fluo-4 fluorescence for 15 seconds, then added 0.05 mL of each compound tested diluted in LTCC assay buffer at final concentrations ranging from about 846 pM to about […]. Fluo-4 fluorescence was then measured for 5 minutes. 0.1 mL KCl agonist dissolved in LTCC assay buffer was then added to the cells to produce a final concentration of 90 mM KCl, and fluorescence was measured for another 45 seconds. Data were collected over the entire time course and analyzed using Excel, Graph Pad Prism, or an in-house regression analysis software.
L-type Recombinant Cell Line Development. L-type calcium channel expressing HEK-293 cells were created in two stages. Stage 1 was created as follows. The rat α1c, and β1 cDNA expression constructs (2.5 μg each) were co-transfected into human embryonic kidney (HEK-293) cells by Lipofectamine Plus reagent (Invitrogen), as per manufacturer's instructions. 24 hours later, cells were split in limiting dilution into multiple 96-well plates in selection media containing 20 μg/mL blasticidin and 500 μg/mL geneticin, and incubated for 3 weeks at 37° C., 5% CO2, 95% humidity. Plates containing ≦1 clone per well were cultured until wells positive for single clones were confluent. Individual clones were then arrayed into columns of a destination 96-well plate, and partly split into 6-well plates for culture maintenance. Array plates were washed once with LTCC wash (or assay) buffer and cells loaded for 1 hour with 0.1 mL of LTCC buffer containing Fluo-4 (3 μM final concentration, Molecular Probes). Then they were washed twice with 0.1 mL of LTCC buffer, and replaced with 0.1 mL LTCC buffer. Plates were then transferred to a FLIPR^96 for assay. The FLIPR measured basal Fluo-4 fluorescence for 315 seconds, then added 0.1 mL KCl agonist dissolved in LTCC buffer and measured fluorescence for another 45 seconds. Final KCl concentration was 90 mM. Data were collected over the entire time course and analyzed using Excel, Graph Pad Prism, or Activity Base software. The clone with the greatest signal-to-noise ratio, best stability of response with passage number, and best adhesion to PDL precoated plates (Becton Dickinson) was expanded, characterized and used for stage 2 cell line development.
Stage 2 of L-type cell line development was carried out as follows. The rat α2δ cDNA expression construct (5 μg each) was transfected into the stage 1 L-type clonal cell line by Lipofectamine Plus reagent (Invitrogen), as per manufacturer's instructions. […]

T2 sequence (P22002 whole entry): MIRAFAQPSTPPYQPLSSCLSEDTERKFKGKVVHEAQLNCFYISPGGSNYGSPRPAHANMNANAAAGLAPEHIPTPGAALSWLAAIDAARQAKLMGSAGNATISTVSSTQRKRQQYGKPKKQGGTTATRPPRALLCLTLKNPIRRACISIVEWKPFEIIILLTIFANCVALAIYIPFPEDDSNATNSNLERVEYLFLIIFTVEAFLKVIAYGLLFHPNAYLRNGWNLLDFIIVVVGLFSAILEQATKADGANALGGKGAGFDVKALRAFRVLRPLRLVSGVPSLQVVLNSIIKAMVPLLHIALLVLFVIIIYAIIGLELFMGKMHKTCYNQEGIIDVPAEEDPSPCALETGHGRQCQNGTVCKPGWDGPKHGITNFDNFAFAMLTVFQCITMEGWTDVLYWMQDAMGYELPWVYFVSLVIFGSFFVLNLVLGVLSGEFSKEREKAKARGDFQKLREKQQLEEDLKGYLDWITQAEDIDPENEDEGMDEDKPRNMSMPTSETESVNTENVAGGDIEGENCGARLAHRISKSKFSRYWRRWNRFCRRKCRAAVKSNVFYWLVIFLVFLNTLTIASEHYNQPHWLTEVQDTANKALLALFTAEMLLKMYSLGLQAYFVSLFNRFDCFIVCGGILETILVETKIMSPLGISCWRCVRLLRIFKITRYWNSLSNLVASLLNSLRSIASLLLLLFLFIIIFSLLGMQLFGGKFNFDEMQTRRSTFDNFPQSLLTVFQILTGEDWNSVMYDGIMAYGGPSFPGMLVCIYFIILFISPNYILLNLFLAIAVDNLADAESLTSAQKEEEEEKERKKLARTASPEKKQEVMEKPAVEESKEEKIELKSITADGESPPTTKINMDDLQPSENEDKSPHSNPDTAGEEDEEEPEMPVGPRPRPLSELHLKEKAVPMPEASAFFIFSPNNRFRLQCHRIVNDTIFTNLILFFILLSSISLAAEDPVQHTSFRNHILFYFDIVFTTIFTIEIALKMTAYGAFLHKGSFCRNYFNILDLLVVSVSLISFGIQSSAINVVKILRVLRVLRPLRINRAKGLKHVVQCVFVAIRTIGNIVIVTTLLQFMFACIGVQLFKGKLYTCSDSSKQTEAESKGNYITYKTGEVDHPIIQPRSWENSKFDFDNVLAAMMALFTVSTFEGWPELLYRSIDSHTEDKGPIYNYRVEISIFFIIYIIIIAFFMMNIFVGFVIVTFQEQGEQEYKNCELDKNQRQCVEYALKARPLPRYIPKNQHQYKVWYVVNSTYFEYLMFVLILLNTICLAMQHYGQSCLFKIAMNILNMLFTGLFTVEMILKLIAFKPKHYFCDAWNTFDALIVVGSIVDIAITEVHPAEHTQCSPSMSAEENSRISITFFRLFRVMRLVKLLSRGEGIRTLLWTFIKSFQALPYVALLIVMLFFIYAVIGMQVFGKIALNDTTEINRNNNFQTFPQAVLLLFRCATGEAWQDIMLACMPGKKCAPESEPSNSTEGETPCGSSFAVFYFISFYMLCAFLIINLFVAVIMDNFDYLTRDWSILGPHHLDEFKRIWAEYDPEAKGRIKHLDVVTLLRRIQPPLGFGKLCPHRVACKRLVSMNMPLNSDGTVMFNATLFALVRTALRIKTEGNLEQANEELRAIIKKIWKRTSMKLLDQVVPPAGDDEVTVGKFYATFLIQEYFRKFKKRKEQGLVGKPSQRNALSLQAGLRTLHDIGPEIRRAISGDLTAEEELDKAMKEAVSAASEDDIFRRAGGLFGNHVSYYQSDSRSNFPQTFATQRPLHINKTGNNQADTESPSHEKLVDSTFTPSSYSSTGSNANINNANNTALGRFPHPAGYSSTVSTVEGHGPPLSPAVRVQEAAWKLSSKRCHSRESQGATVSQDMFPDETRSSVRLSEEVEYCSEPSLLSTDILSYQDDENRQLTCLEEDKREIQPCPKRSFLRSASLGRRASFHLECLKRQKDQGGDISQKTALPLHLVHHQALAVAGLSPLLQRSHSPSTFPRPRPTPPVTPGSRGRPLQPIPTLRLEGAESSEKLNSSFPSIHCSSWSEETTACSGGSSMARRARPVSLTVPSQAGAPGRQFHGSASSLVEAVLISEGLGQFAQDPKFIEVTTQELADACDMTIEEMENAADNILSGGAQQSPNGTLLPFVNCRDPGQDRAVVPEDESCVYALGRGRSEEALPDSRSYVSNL
T2 sequence (P54290 25-944 partner): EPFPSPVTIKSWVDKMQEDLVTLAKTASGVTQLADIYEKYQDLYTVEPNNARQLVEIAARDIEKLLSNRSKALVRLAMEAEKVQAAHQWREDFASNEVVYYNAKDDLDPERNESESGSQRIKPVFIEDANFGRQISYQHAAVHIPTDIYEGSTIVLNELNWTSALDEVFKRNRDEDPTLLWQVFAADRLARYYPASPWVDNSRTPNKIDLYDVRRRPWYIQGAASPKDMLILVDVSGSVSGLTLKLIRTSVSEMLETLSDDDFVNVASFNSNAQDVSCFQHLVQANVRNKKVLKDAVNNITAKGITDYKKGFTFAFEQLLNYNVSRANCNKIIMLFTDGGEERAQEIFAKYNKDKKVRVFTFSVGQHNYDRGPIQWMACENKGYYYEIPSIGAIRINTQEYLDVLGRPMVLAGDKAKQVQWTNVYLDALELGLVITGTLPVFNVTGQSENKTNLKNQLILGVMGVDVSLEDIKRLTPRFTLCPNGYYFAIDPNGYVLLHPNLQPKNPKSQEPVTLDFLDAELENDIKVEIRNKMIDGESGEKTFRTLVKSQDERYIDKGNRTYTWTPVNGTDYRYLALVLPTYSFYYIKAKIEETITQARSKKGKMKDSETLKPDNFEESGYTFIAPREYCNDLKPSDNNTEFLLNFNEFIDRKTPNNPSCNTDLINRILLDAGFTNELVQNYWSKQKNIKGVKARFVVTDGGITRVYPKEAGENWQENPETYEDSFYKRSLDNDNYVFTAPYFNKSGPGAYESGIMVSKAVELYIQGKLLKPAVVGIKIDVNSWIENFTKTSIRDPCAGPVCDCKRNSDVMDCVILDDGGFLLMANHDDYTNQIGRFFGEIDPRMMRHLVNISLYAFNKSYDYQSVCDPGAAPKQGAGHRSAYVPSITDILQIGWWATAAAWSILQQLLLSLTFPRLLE
T2 sequence (P54290 945-1091 partner): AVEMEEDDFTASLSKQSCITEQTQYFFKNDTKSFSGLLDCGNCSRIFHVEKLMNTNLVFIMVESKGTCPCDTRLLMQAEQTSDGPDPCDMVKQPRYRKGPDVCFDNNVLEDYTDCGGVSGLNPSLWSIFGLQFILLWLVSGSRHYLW
T2 sequence (P54283 whole entry partner): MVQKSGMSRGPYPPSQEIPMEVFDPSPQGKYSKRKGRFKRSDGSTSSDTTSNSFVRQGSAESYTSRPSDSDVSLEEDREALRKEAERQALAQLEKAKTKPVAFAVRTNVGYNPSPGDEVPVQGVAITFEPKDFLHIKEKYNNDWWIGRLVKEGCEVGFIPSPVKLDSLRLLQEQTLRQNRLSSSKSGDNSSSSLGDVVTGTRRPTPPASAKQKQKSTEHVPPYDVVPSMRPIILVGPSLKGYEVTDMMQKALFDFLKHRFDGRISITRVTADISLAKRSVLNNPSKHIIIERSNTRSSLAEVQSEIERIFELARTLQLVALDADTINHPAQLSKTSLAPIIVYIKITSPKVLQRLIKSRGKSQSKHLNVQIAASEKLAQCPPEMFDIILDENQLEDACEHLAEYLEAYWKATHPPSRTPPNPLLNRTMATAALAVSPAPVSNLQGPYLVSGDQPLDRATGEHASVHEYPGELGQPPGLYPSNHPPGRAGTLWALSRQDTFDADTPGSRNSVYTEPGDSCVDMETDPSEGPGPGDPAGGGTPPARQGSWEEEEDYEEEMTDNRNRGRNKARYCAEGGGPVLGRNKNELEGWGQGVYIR

IC50 [1] [nM]	IC50 [2] [nM]	Structure (SMILES)
550	> 20000	CC(C)N(C1CCN(C2CCN(c3ccccc3)C2=O)CC1)S(=O)(=O)c1cccc(C(F)(F)F)c1 (stereo not drawn) [Compound 27a, N-Isopropyl-N-[1-(2-oxo-1-phenyl-pyrrolidin-3-yl)-piperidin-4-yl]-3-trifluoromethyl-benzenesulfonamide]
390	> 20000	CC(C(=O)Nc1ccccc1)N1CCC(N(C2CC2)S(=O)(=O)c2cccc(C(F)(F)F)c2)CC1 (stereo not drawn) [Compound 27b, 2-{4-[Cyclopropyl-(3-trifluoromethyl-benzenesulfonyl)-amino]piperidin-1-yl}-N-phenyl-propionamide]
300	> 20000	CC(C)N(C1CCN(CC(=O)N2CCCCCC2)CC1)S(=O)(=O)c1cccc(C(F)(F)F)c1 [Compound 31a, N-[1-(2-Azepan-1-yl-2-oxo-ethyl)-piperidin-4-yl]-N-isopropyl-3-trifluoromethyl-benzenesulfonamide]
260	7850	CC(C)N(C1CCN(CC(=O)NC2CCCCCC2)CC1)S(=O)(=O)c1cccc(C(F)(F)F)c1 [Compound 31c, N-Cycloheptyl-2-{4-[isopropyl-(3-trifluoromethyl-benzenesulfonyl)-amino]-piperidin-1-yl}-acetamide]
340	4120	CC(C)N(C1CCN(CC(=O)NC2CC3CCC2C3)CC1)S(=O)(=O)c1cccc(C(F)(F)F)c1 (stereo not drawn) [Compound 31d, N-Bicyclo[2.2.1]hept-2-yl-2-{4-[isopropyl-(3-trifluoromethyl-benzenesulfonyl)-amino]-piperidin-1-yl}-acetamide]
580	> 20000	CC(C)N(C1CCN(CC(=O)Nc2ccc3c(c2)OC(F)(F)O3)CC1)S(=O)(=O)c1cccc(C(F)(F)F)c1 [Compound 31f, N-(2,2-Difluoro-benzo[1,3]dioxol-5-yl)-2-{4-[isopropyl-(3-trifluoromethyl-benzenesulfonyl)-amino]-piperidin-1-yl}-acetamide]
